According to patent US20090082304A1, “Methods of Treating Hematological Malignancies with Nucleoside Analog Drugs” (NORTHWESTERN UNIVERSITY, priority 2004, published 2009):

Key:
Type in all cases: cell-based
[1] = system: FKHR; experiment: Immunoblot of phospho-FKHR in MM.1 S cells; conditions: 10 μM, data not shown
Procedure: (§1) 5×10^6 were cells treated with 10 μM 8-NH2-Ado for the indicated times and harvested. Cell pellets were washed with cold phosphate-buffered saline (PBS; 8.1 g NaCl, 1.14 g Na2HPO4, 0.22 g KCl, and 0.25 g/L KH2PO4) and incubated with lysis buffer (50 mM HEPES, 150 mM NaCl, 1.5 mM MgCl2, 1 mM EDTA pH 8.0, 100 mM NaFI, 10 mM Na Pyrophosphate, 500 μM PMSF, 0.5% Triton X-100, 10% glycerol) at 4° C. for one hour. Lysates were centrifuged at 4° C. for 1 minute at 9000×g, and the supernatants were collected and stored at −20° C. Protein concentration was determined by Bio-Rad protein assay (BioRad Laboratories, Hercules, Calif.). Protein, at a concentration of 30 μg, was mixed with sample buffer (125 mM Tris, pH 6.8, 4% SDS, 20% glycerol, 100 mM Dithiothreitol (DTT), and 0.05% bromophenol blue), and fractionated on a pre-cast 8-16% Tris-Glycine gel (Invitrogen/Novex, Carlsbad, Calif.). Proteins were then transferred to a Polyvinylidene Fluoride (PVDF) membrane (Immobilon-P, Millipore, Bedford, Mass.): Following protein transfer, membranes were blocked with 5% non-fat milk in PBS-T (PBS with 0.1% Tween), incubated with the primary antibody overnight at 4° C. and subsequently with horseradish peroxidase linked secondary antibody (Amersham, Arlington Heights, Ill.). […]

[2] = system: endogenous ATP; experiment: Endogenous ATP pools
Procedure: MM.IS cells were grown in dextrose-free RPMI-1640 media (Invitrogen, Baltimore, Md.) supplemented with 10% fetal bovine serum, 2 mM glutamine, 100 units/ml penicillin, 100 μg/ml streptomycin and 2.5 μg/ml fungizone. Cellular ATP levels were manipulated by the addition of either antimycin (2 μM, a mitochondrial inhibitor) or 2-deoxy-D-glucose (2-DOG, 5 mM, an inhibitor of glycolysis) from Sigma (St. Louis, Mo.) with and without varying concentrations of dextrose. Six different metabolic conditions were examined: 1) antimycin without dextrose, 2) antimycin+0.25 mM dextrose, 3) antimycin+1 mM dextrose, 4) antimycin+10 mM dextrose, 5) 2-DOG without dextrose, 6) 2-DOG+10 mM dextrose. Control cells were not subjected to ATP depletion; 10 mM dextrose was added to dextrose-free RMPI-1640. Endogenous ATP was measured in a luciferase-based assay using the ATP Determination Kit from Molecular Probes (Eugene, Oreg.) and the levels corresponding to each treatment were normalized to untreated controls (20).

[3] = system: poly (ADP-ribose) polymerase; experiment: PARP cleavage immunoblot in MM.1 S cells; conditions: 10 μM
Procedure: as §1, with “Calif.).” for “Calif.). Proteins were then transferred to a Polyvinylidene Fluoride (PVDF) membrane (Immobilon-P, Millipore, Bedford, Mass.): Following protein transfer, membranes were blocked with 5% non-fat milk in PBS-T (PBS with 0.1% Tween), incubated with the primary antibody overnight at 4° C. and subsequently with horseradish peroxidase linked secondary antibody (Amersham, Arlington Heights, Ill.).”
(§2) MM.1 S cells were exposed to 10 μM 8-NH2-Ado for 0, 0.5, 1, 2, 4 or 6 hours, after which cells were lysed as previously described. […] Total protein levels were also assessed to ensure equal loading and transfer (data not shown). […]

[4] = system: caspase 9; experiment: Caspase 9 activation immunoblot in MM.1 S cells; conditions: 10 μM
Procedure: as §1, with “Calif.).” for “Calif.). Proteins were then transferred to a Polyvinylidene Fluoride (PVDF) membrane (Immobilon-P, Millipore, Bedford, Mass.): Following protein transfer, membranes were blocked with 5% non-fat milk in PBS-T (PBS with 0.1% Tween), incubated with the primary antibody overnight at 4° C. and subsequently with horseradish peroxidase linked secondary antibody (Amersham, Arlington Heights, Ill.).”
as §2

[5] = system: p38 MAPK; experiment: Immunoblot of phospho-p38 MAPK in MM.1 S cells; conditions: 10 μM
Procedure: (§3) 5×10^6 were cells treated with 10 μM 8-NH2-Ado for the indicated times and harvested. Cell pellets were washed with cold phosphate-buffered saline (PBS; 8.1 g NaCl, 1.14 g Na2HPO4, 0.22 g KCl, and 0.25 g/L KH2PO4) and incubated with lysis buffer (50 mM HEPES, 150 mM NaCl, 1.5 mM MgCl2, 1 mM EDTA pH 8.0, 100 mM NaFI, 10 mM Na Pyrophosphate, 500 μM PMSF, 0.5% Triton X-100, 10% glycerol) at 4° C. for one hour. Lysates were centrifuged at 4° C. for 1 minute at 9000×g, and the supernatants were collected and stored at −20° C. Protein concentration was determined by Bio-Rad protein assay (BioRad Laboratories, Hercules, Calif.). Protein, at a concentration of 30 μg, was mixed with sample buffer (125 mM Tris, pH 6.8, 4% SDS, 20% glycerol, 100 mM Dithiothreitol (DTT), and 0.05% bromophenol blue), and fractionated on a pre-cast 8-16% Tris-Glycine gel (Invitrogen/Novex, Carlsbad, Calif.). Proteins were then transferred to a Polyvinylidene Fluoride (PVDF) membrane (Immobilon-P, Millipore, Bedford, Mass.): Following protein transfer, membranes were blocked with 5% non-fat milk in PBS-T (PBS with 0.1% Tween), incubated with the primary antibody overnight at 4° C. and subsequently with horseradish peroxidase linked secondary antibody (Amersham, Arlington Heights, Ill.). Blots were developed using ECL Plus Chemiluminescent Western Blotting Detection reagent (Amersham, Arlington Heights, Ill.) and the signal was visualized with X-ray film (Hyperfilm, Amersham, Arlington Heights, Ill.). For reprobing purposes, blots were stripped using Restore Western Blot Stripping Buffer from Pierce Biotechnology (Rockford, Ill.). Phospho-MKK3/6 (Ser189/207), phospho-p38 (Thr180/Tyr182), phospho-ATF-2 (Thr69/71), phospho-c-Raf (Ser259), phospho-MEK1/2 (Ser217/221), total MEK1/2, phospho-ERK1/2 (Thr202/Tyr204), total ERK1/2, phospho-p90RSK (Ser380), total RSK, phospho-PDK1 (Ser241), total PDKI, phospho-PTEN (Ser380), total PTEN, phospho-Akt (Ser473), total Akt, phospho-GSK-3β (Ser9), total GSK-3β, phospho-FKHRLI (Thr32)/-FKHR (Thr24), phospho-FKHR (Ser256) primary antibodies were obtained from Cell Signaling Technology (Beverly, Mass.). Total MKK3, total MKK6, total p38, total ATF-2, total c-Raf, total FKHR, total FKHRLI, phospho-JNK and total JNK were purchased from Santa Cruz Biotechnology (Santa Cruz, Calif.). Caspase 3, caspase 9, and PARP antibodies were obtained from Pharmingen (San Diego, Calif.) and anti-MKP1 from Upstate (Lake Placid, N.Y.). Anti-caspase 8 mouse serum was a generous gift of Dr. Marcus Peter (University of Chicago).
(§4) MM.1 S cells were exposed to 10 μM 8-NH2-Ado for 0, 0.5, 1, 2, 4 and 6 hours, after which cells were lysed as previously (Example 2). 30 μg of protein was separated by gel electrophoresis, transferred to PVDF membrane, and probed with phosphorylation-specific antibodies to MKK3/6, p38 MAPK, ATF-2, MEK1/2, ERK1/2, p90RSK, JNK1, PDK1, Akt, FKHRL1 and GSK-3β. […] FIGS. 1A, 1B, 1C and 1D provide the results of the blots.
MM. I S cells were treated with 10 μM 8-chloro-adenosine for 0, 0.5, 1, 2, 4 or 6 hours or 10 μM of cytarabine, fludarabine, gemcitabine or 8-amino-adenosine for 4 hours. Cells were lysed as previously described and 30 μg of protein was separated by gel electrophoresis, transferred to PVDF membrane, and probed with phospho-p38 MAPK (Thr180/Tyr182) antibody.
In a parallel approach to test the involvement of cellular phosphatases, we treated MM.1 S cells with varying concentrations of the phosphatase inhibitor okadaic acid in combination with 8-NH2-Ado for 4 hours to assess whether the serine/threonine phosphatases PP2A and PPI are involved.

[6] = system: total protein levels of the signaling proteins in myeloma cells; experiment: Immunoblot reprobe with total protein antibodies
Procedure: as §3, §4

[7] = system: p90RSK; experiment: Immunoblot of phospho-p90RSK in MM.1 S cells; conditions: 10 μM, 0-6 hours
Procedure: as §1

Nc1ncnc2c1nc(N)n2[C@@H]1O[C@H](CO)[C@@H](O)[C@H]1O [8-NH2-Ado, 8-amino-adenosine]
FKHR phosphorylation [1]: similarly affected | endogenous ATP pools [2]: dramatic shifts | start of cleavage of poly (ADP-ribose) polymerase [3]: ≥ 2 h | time at which cleaved and activated caspase 9 appears [4]: 2 to 4 h | phosphorylation of p38 ([5]; 4 hours): dramatic loss of phosphorylation | p38 phosphorylation levels ([5]; after 2 hours): no appreciable phosphorylation | p38 phosphorylation levels ([5]; by 1 hour): dramatically reduced | Total protein levels of the p38 MAPK module (MKK3/6, p38, ATF-2) ([6]; MM.1 S cells, 10 μM, 0-6 hours): remain unchanged | total ERK1/2 levels ([6]; MM.1 S cells, 10 μM, 0-6 hours): remain unchanged | total MEK1/2 protein levels ([6]; MM.1 S cells, 10 μM, 0-6 hours): do not change | total p90RSK protein levels ([6]; MM.1 S cells, 10 μM, 0-6 hours): unaffected | total protein levels of Forkhead family members ([6]; MM.1 S cells, 10 μM, 0-6 hours): do not change | total p38 levels ([6]; RPMI-8226, MDR10V and MM.1 R cells): remain unchanged | phosphorylation level of p90RSK [7]: modestly decrease
